Reference: US10040788B2, “1,3,4-thiadiazole compounds and their use in treating cancer” (AstraZeneca AB, priority 2014, dated 2018)

Tested on: NCI-H1703 cells
Experiment: GLS Cell Proliferation Assay (NCI-H1703)
Type: cell-based, human
Details: Homo sapiens, 120 h; NCI-H1703 cells, 5 days incubation; geometric mean where repeated; read-out: Assay c) GLS Cell Proliferation Assay
Excerpt: The following assays were used to measure the effects of the compounds of the present invention: a) GLS Enzyme Potency Assay; b) GLS Cell Potency Assay; c) GLS Cell Proliferation Assay; and d) Mouse Xenograft Model. During the description of the assays, generally: • i. The following abbreviations have been used: CO2=Carbon dioxide; DMEM=Dulbecco's Modified Eagle Medium; DMSO=Dimethyl sulphoxide; EDTA=Ethylenediaminetetraacetic acid; EGTA=Ethylene glycol tetraacetic acid; FCS=Foetal calf serum; h=Hour(s); NBS=Non-binding surface; SDS=Sodium dodecyl sulphate; r.t.=room temperature; TRIS=Tris(Hydroxymethyl)aminomethane. • ii. […]
The ability of compounds to inhibit cell growth was measured using a 384 well plate NCI-H1703 cell proliferation assay. NCI-H1703 cells were grown in phenol red free RPMI1640, 10% FCS and 2 mM glutamine and seeded at a density of 750 cells per well in 40 μl of growth medium into clear-bottom 384 well assay plates (Corning product code 3712) and incubated for 24 h at 37° C., 5% CO2. […] DMSO concentration was maintained at 0.3% by back filling with DMSO solution. Plates were incubated for 5 days at 37° C., 5% CO2, Sytox Green and Saponin added to final concentration of 2 μM and 0.25% respectively and incubated for 6 h prior to analysis. Plates were read on an Acumen eX3 (TTP Labtech) using 488 nm excitation and FITC filter set (500-530 nm) for emission. IC50 values were calculated by curve fitting to max inhibition of day zero growth using GeneData software analysis.

Structure (SMILES)	IC50 [nM]
CO[C@H](C(=O)Nc1nnc(N[C@@H]2CCN(c3nccnn3)C2)s1)c1ccc(F)cc1 [17(a), (2S)-2-(4-fluorophenyl)-2-methoxy-N-[5-[[(3R)-1-(1,2,4-triazin-3-yl)pyrrolidin-3-yl]amino]-1,3,4-thiadiazol-2-yl]acetamide]	3570
CO[C@@H](C(=O)Nc1nnc(N[C@@H]2CCN(c3nccnn3)C2)s1)c1ccc(F)cc1 [17(b), (2R)-2-(4-fluorophenyl)-2-methoxy-N-[5-[[(3R)-1-(1,2,4-triazin-3-yl)pyrrolidin-3-yl]amino]-1,3,4-thiadiazol-2-yl]acetamide]	120
[2H]C([2H])([2H])O[C@H](C(=O)Nc1nnc(N[C@@H]2CCN(c3cccnn3)C2)s1)c1ccccc1 [18(a), (2S)-2-phenyl-N-[5-[[(3R)-1-pyridazin-3-ylpyrrolidin-3-yl]amino]-1,3,4-thiadiazol-2-yl]-2-(trideuteriomethoxy)acetamide]	1.88
[2H]C([2H])([2H])O[C@@H](C(=O)Nc1nnc(N[C@@H]2CCN(c3cccnn3)C2)s1)c1ccccc1 [18(b), (2R)-2-phenyl-N-[5-[[(3R)-1-pyridazin-3-ylpyrrolidin-3-yl]amino]-1,3,4-thiadiazol-2-yl]-2-(trideuteriomethoxy)acetamide]	73
[2H]C([2H])([2H])O[C@]([2H])(C(=O)Nc1nnc(N[C@@H]2CCN(c3cccnn3)C2)s1)c1ccccc1 [20(a), (2S)-2-deuterio-2-phenyl-N-[5-[[(3R)-1-pyridazin-3-ylpyrrolidin-3-yl]amino]-1,3,4-thiadiazol-2-yl]-2-(trideuteriomethoxy)acetamide]	1.94
[2H]C([2H])([2H])O[C@@]([2H])(C(=O)Nc1nnc(N[C@@H]2CCN(c3cccnn3)C2)s1)c1ccccc1 [20(b), (2R)-2-deuterio-2-phenyl-N-[5-[[(3R)-1-pyridazin-3-ylpyrrolidin-3-yl]amino]-1,3,4-thiadiazol-2-yl]-2-(trideuteriomethoxy)acetamide]	166
CO[C@H](C(=O)Nc1nnc(N[C@@H]2CCN(c3cncnn3)C2)s1)c1cccc(OC(F)(F)F)c1 [22(a), (2S)-2-methoxy-N-[5-[[(3R)-1-(1,2,4-triazin-6-yl)pyrrolidin-3-yl]amino]-1,3,4-thiadiazol-2-yl]-2-[3-(trifluoromethoxy)phenyl]acetamide]	10.7
CO[C@H](C(=O)Nc1nnc(N[C@@H]2CCN(c3cncnn3)C2)s1)c1cccc(OC(F)F)c1 [23(a), (2S)-2-[3-(difluoromethoxy)phenyl]-2-methoxy-N-[5-[[(3R)-1-(1,2,4-triazin-6-yl)pyrrolidin-3-yl]amino]-1,3,4-thiadiazol-2-yl]acetamide]	4.63
CO[C@@H](C(=O)Nc1nnc(N[C@@H]2CCN(c3cncnn3)C2)s1)c1cccc(OC(F)F)c1 [23(b), (2R)-2-[3-(difluoromethoxy)phenyl]-2-methoxy-N-[5-[[(3R)-1-(1,2,4-triazin-6-yl)pyrrolidin-3-yl]amino]-1,3,4-thiadiazol-2-yl]acetamide]	35.4
COc1ccc([C@H](OC)C(=O)Nc2nnc(N[C@@H]3CCN(c4nccnn4)C3)s2)cc1OC [26(a), (2S)-2-(3,4-dimethoxyphenyl)-2-methoxy-N-[5-[[(3R)-1-(1,2,4-triazin-3-yl)pyrrolidin-3-yl]amino]-1,3,4-thiadiazol-2-yl]acetamide]	2050
COc1ccc([C@@H](OC)C(=O)Nc2nnc(N[C@@H]3CCN(c4nccnn4)C3)s2)cc1OC [26(b), (2R)-2-(3,4-dimethoxyphenyl)-2-methoxy-N-[5-[[(3R)-1-(1,2,4-triazin-3-yl)pyrrolidin-3-yl]amino]-1,3,4-thiadiazol-2-yl]acetamide]	101
CCO[C@H](C(=O)Nc1nnc(N[C@@H]2CCN(c3cccnn3)C2)s1)c1ccc(OC)cc1 [28(a), (2S)-2-ethoxy-2-(4-methoxyphenyl)-N-[5-[[(3R)-1-pyridazin-3-ylpyrrolidin-3-yl]amino]-1,3,4-thiadiazol-2-yl]acetamide]	9.28
CCO[C@@H](C(=O)Nc1nnc(N[C@@H]2CCN(c3cccnn3)C2)s1)c1ccc(OC)cc1 [28(b), (2R)-2-ethoxy-2-(4-methoxyphenyl)-N-[5-[[(3R)-1-pyridazin-3-ylpyrrolidin-3-yl]amino]-1,3,4-thiadiazol-2-yl]acetamide]	151
CCO[C@H](C(=O)Nc1nnc(N[C@@H]2CCN(c3cccnn3)C2)s1)c1cccc(OC)c1 [30(a), (2S)-2-ethoxy-2-(3-methoxyphenyl)-N-[5-[[(3R)-1-pyridazin-3-ylpyrrolidin-3-yl]amino]-1,3,4-thiadiazol-2-yl]acetamide]	71.6
CCO[C@@H](C(=O)Nc1nnc(N[C@@H]2CCN(c3cccnn3)C2)s1)c1cccc(OC)c1 [30(b), (2R)-2-ethoxy-2-(3-methoxyphenyl)-N-[5-[[(3R)-1-pyridazin-3-ylpyrrolidin-3-yl]amino]-1,3,4-thiadiazol-2-yl]acetamide]	2.01
CO[C@H](C(=O)Nc1nnc(N[C@@H]2CCN(c3nccnn3)C2)s1)c1ccccc1 [Example 1(a), (2S)-2-Methoxy-2-phenyl-N-[5-[[(3R)-1-(1,2,4-triazin-3-yl)pyrrolidin-3-yl]amino]-1,3,4-thiadiazol-2-yl]acetamide]	53.5
CO[C@@H](C(=O)Nc1nnc(N[C@@H]2CCN(c3nccnn3)C2)s1)c1ccccc1 [Example 1(b), (2R)-2-Methoxy-2-phenyl-N-[5-[[(3R)-1-(1,2,4-triazin-3-yl)pyrrolidin-3-yl]amino]-1,3,4-thiadiazol-2-yl]acetamide]	2240
CO[C@@H](C(=O)Nc1nnc(N[C@@H]2CCN(c3cccnn3)C2)s1)c1ccccc1 [Example 2(b), (2R)-2-Methoxy-2-phenyl-N-[5-[[(3R)-1-pyridazin-3-ylpyrrolidin-3-yl]amino]-1,3,4-thiadiazol-2-yl]acetamide]	179
CO[C@H](C(=O)Nc1nnc(N[C@@H]2CCN(c3cccnn3)C2)s1)c1cccc(OC(F)F)c1 [Example 7(a), (2S)-2-[3-(Difluoromethoxy)phenyl]-2-methoxy-N-[5-[[(3R)-1-pyridazin-3-ylpyrrolidin-3-yl]amino]-1,3,4-thiadiazol-2-yl]acetamide]	2.23
CO[C@@H](C(=O)Nc1nnc(N[C@@H]2CCN(c3cccnn3)C2)s1)c1cccc(OC(F)F)c1 [Example 7(b), (2R)-2-[3-(Difluoromethoxy)phenyl]-2-methoxy-N-[5-[[(3R)-1-pyridazin-3-ylpyrrolidin-3-yl]amino]-1,3,4-thiadiazol-2-yl]acetamide]	6.94
CO[C@H](C(=O)Nc1nnc(N[C@@H]2CCN(c3nccnn3)C2)s1)c1cccc(OC(F)(F)F)c1 [Example 8(a), (2S)-2-Methoxy-N-[5-[[(3R)-1-(1,2,4-triazin-3-yl)pyrrolidin-3-yl]amino]-1,3,4-thiadiazol-2-yl]-2-[3-(trifluoromethoxy)phenyl]acetamide]	5.04
CO[C@@H](C(=O)Nc1nnc(N[C@@H]2CCN(c3nccnn3)C2)s1)c1cccc(OC(F)(F)F)c1 [Example 8(b), (2R)-2-Methoxy-N-[5-[[(3R)-1-(1,2,4-triazin-3-yl)pyrrolidin-3-yl]amino]-1,3,4-thiadiazol-2-yl]-2-[3-(trifluoromethoxy)phenyl]acetamide]	36.8
CO[C@H](C(=O)Nc1nnc(N[C@@H]2CCN(c3cccnn3)C2)s1)c1ccc(F)cc1 [Example 12(a), (2S)-2-(4-Fluorophenyl)-2-methoxy-N-[5-[[(3R)-1-pyridazin-3-ylpyrrolidin-3-yl]amino]-1,3,4-thiadiazol-2-yl]acetamide]	13.5
CO[C@@H](C(=O)Nc1nnc(N[C@@H]2CCN(c3cccnn3)C2)s1)c1ccc(F)cc1 [Example 12(b), (2R)-2-(4-Fluorophenyl)-2-methoxy-N-[5-[[(3R)-1-pyridazin-3-ylpyrrolidin-3-yl]amino]-1,3,4-thiadiazol-2-yl]acetamide]	429
CCO[C@H](C(=O)Nc1nnc(N[C@@H]2CCN(c3cccnn3)C2)s1)c1cccc(OC(F)F)c1 [Example 15(a), (2S)-2-[3-(Difluoromethoxy)phenyl]-2-ethoxy-N-[5-[[(3R)-1-pyridazin-3-ylpyrrolidin-3-yl]amino]-1,3,4-thiadiazol-2-yl]acetamide]	0.921
CCO[C@@H](C(=O)Nc1nnc(N[C@@H]2CCN(c3cccnn3)C2)s1)c1cccc(OC(F)F)c1 [Example 15(b), (2R)-2-[3-(Difluoromethoxy)phenyl]-2-ethoxy-N-[5-[[(3R)-1-pyridazin-3-ylpyrrolidin-3-yl]amino]-1,3,4-thiadiazol-2-yl]acetamide]	2.47
CCO[C@H](C(=O)Nc1nnc(N[C@@H]2CCN(c3cccnn3)C2)s1)c1cccc(OC(F)(F)F)c1 [Example 16(a), (2S)-2-Ethoxy-N-[5-[[(3R)-1-pyridazin-3-ylpyrrolidin-3-yl]amino]-1,3,4-thiadiazol-2-yl]-2-[3-(trifluoromethoxy)phenyl]acetamide]	1.32
CCO[C@@H](C(=O)Nc1nnc(N[C@@H]2CCN(c3cccnn3)C2)s1)c1cccc(OC(F)(F)F)c1 [Example 16(b), (2R)-2-Ethoxy-N-[5-[[(3R)-1-pyridazin-3-ylpyrrolidin-3-yl]amino]-1,3,4-thiadiazol-2-yl]-2-[3-(trifluoromethoxy)phenyl]acetamide]	6.38
